According to ChEMBL document CHEMBL1201862, “PubChem BioAssay data set” (2004):
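The compound was tested at five concentrations on cells cultured in 96-well plates, with a 48-hour exposure period. Here, GI50 denotes the concentration required for 50% inhibition of growth.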 Active and inactive are the calls of the source. No stated cut-off is given here; in the data, active = GI50 up to about 1.1 µM and inactive = higher.

Columns and labels:
Test in all cases: NCI-60 cell line screen, 48 h
OVCAR-4 = tested on: OVCAR-4
OVCAR-5 = tested on: OVCAR-5
SF-268 = tested on: SF-268
UO-31 = tested on: UO-31
MCF7 = tested on: MCF7
LOX IMVI = tested on: LOX IMVI
SW-620 = tested on: SW-620
T47D = tested on: T47D
HT-29 = tested on: HT-29
PC-3 = tested on: PC-3
SNB-19 = tested on: SNB-19
HL-60 = tested on: HL-60
SK-MEL-28 = tested on: SK-MEL-28
HOP-92 = tested on: HOP-92
NCI-H23 = tested on: NCI-H23
Malme-3M = tested on: Malme-3M
EKVX = tested on: EKVX
U-251 = tested on: U-251
IGROV-1 = tested on: IGROV-1
KM12 = tested on: KM12
MOLT-4 = tested on: MOLT-4
786-0 = tested on: 786-0
OVCAR-8 = tested on: OVCAR-8
HCT-15 = tested on: HCT-15
Hs-578T = tested on: Hs-578T
MDA-MB-435 = tested on: MDA-MB-435
DU-145 = tested on: DU-145
COLO 205 = tested on: COLO 205
A498 = tested on: A498
K562 = tested on: K562
ACHN = tested on: ACHN
A549 = tested on: A549
NCI/ADR-RES = tested on: NCI/ADR-RES
HCC 2998 = tested on: HCC 2998
SF-539 = tested on: SF-539
M14 = tested on: M14
MDA-N = tested on: MDA-N
NCI-H522 = tested on: NCI-H522
HOP-62 = tested on: HOP-62
BT-549 = tested on: BT-549
SR = tested on: SR
MDA-MB-231 = tested on: MDA-MB-231
UACC-62 = tested on: UACC-62
SK-MEL-5 = tested on: SK-MEL-5
UACC-257 = tested on: UACC-257
SK-OV-3 = tested on: SK-OV-3
SN12C = tested on: SN12C
OVCAR-3 = tested on: OVCAR-3
NCI-H226 = tested on: NCI-H226
HCT-116 = tested on: HCT-116
TK-10 = tested on: TK-10
SK-MEL-2 = tested on: SK-MEL-2
RPMI-8226 = tested on: RPMI-8226
RXF 393 = tested on: RXF 393
NCI-H460 = tested on: NCI-H460
CCRF-CEM = tested on: CCRF-CEM
SNB-75 = tested on: SNB-75
SF-295 = tested on: SF-295
CAKI-1 = tested on: CAKI-1

Cc1nn(CN2CCN(C)CC2)c(=S)n1/N=C/c1ccc(-c2ccc(Cl)cc2Cl)o1
GI50 (OVCAR-4): 37.4 µM (inactive) | GI50 (OVCAR-5): > 100 µM (inactive) | GI50 (SF-268): 92.5 µM (inactive) | GI50 (UO-31): 92.9 µM (inactive) | GI50 (MCF7): 33.4 µM (inactive) | GI50 (LOX IMVI): 60.7 µM (inactive) | GI50 (SW-620): 42.7 µM (inactive) | GI50 (T47D): 21.2 µM (inactive) | GI50 (HT-29): 89.1 µM (inactive) | GI50 (PC-3): 68.7 µM (inactive) | GI50 (SNB-19): > 100 µM (inactive) | GI50 (HL-60): 32.7 µM (inactive) | GI50 (SK-MEL-28): > 100 µM (inactive) | GI50 (HOP-92): > 100 µM (inactive) | GI50 (NCI-H23): 71.6 µM (inactive) | GI50 (Malme-3M): > 100 µM (inactive) | GI50 (EKVX): 14.8 µM (inactive) | GI50 (U-251): 32.8 µM (inactive) | GI50 (IGROV-1): 81.8 µM (inactive) | GI50 (KM12): > 100 µM (inactive) | GI50 (MOLT-4): 30.5 µM (inactive) | GI50 (786-0): 50.1 µM (inactive) | GI50 (OVCAR-8): 51.3 µM (inactive) | GI50 (HCT-15): 47.2 µM | GI50 (Hs-578T): > 100 µM (inactive) | GI50 (MDA-MB-435): 36.1 µM (inactive) | GI50 (DU-145): > 100 µM (inactive) | GI50 (COLO 205): > 100 µM (inactive) | GI50 (A498): 19.2 µM (inactive) | GI50 (K562): 50.8 µM (inactive) | GI50 (ACHN): > 100 µM (inactive) | GI50 (A549): > 100 µM (inactive) | GI50 (NCI/ADR-RES): 62.7 µM (inactive) | GI50 (HCC 2998): > 100 µM (inactive) | GI50 (SF-539): 35.9 µM (inactive) | GI50 (M14): > 100 µM (inactive) | GI50 (MDA-N): 50.5 µM (inactive) | GI50 (NCI-H522): > 100 µM (inactive) | GI50 (HOP-62): > 100 µM (inactive) | GI50 (BT-549): > 100 µM (inactive) | GI50 (SR): 37 µM (inactive) | GI50 (MDA-MB-231): 63.8 µM (inactive) | GI50 (UACC-62): 99.5 µM (inactive) | GI50 (SK-MEL-5): 43.3 µM (inactive) | GI50 (UACC-257): 66.7 µM (inactive) | GI50 (SK-OV-3): > 100 µM (inactive) | GI50 (SN12C): > 100 µM (inactive) | GI50 (OVCAR-3): 64 µM (inactive) | GI50 (NCI-H226): 29.4 µM (inactive) | GI50 (HCT-116): 74.6 µM (inactive) | GI50 (TK-10): 43.9 µM (inactive) | GI50 (SK-MEL-2): > 100 µM (inactive)

C/C(=C\c1ccccc1)C(=O)NCc1ccc(C(=O)NCCc2ccccc2)cc1
GI50 (OVCAR-4): > 100 µM (inactive) | GI50 (OVCAR-5): > 96.2 µM (inactive) | GI50 (SF-268): 4.37 µM (inactive) | GI50 (UO-31): 22 µM (inactive) | GI50 (MCF7): > 100 µM (inactive) | GI50 (LOX IMVI): > 100 µM (inactive) | GI50 (SW-620): > 100 µM (inactive) | GI50 (RPMI-8226): > 100 µM (inactive) | GI50 (T47D): > 89.7 µM (inactive) | GI50 (HT-29): 2.67 µM (inactive) | GI50 (PC-3): > 100 µM (inactive) | GI50 (SNB-19): 9.42 µM (inactive) | GI50 (SK-MEL-28): > 100 µM (inactive) | GI50 (HOP-92): 18.4 µM (inactive) | GI50 (NCI-H23): > 52.4 µM (inactive) | GI50 (Malme-3M): > 100 µM (inactive) | GI50 (RXF 393): 13.8 µM (inactive) | GI50 (NCI-H460): > 100 µM (inactive) | GI50 (EKVX): 22.5 µM (inactive) | GI50 (U-251): > 51.8 µM (inactive) | GI50 (IGROV-1): 35.8 µM (inactive) | GI50 (KM12): > 100 µM (inactive) | GI50 (MOLT-4): > 100 µM (inactive) | GI50 (CCRF-CEM): > 100 µM (inactive) | GI50 (786-0): 20.6 µM (inactive) | GI50 (OVCAR-8): 3.47 µM (inactive) | GI50 (HCT-15): > 100 µM | GI50 (Hs-578T): 7.16 µM (inactive) | GI50 (SNB-75): 3.95 µM (inactive) | GI50 (MDA-MB-435): > 100 µM (inactive) | GI50 (DU-145): > 100 µM (inactive) | GI50 (COLO 205): > 100 µM (inactive) | GI50 (A498): > 66.5 µM (inactive) | GI50 (K562): > 100 µM (inactive) | GI50 (ACHN): > 94.6 µM (inactive) | GI50 (A549): > 100 µM (inactive) | GI50 (NCI/ADR-RES): > 39.9 µM (inactive) | GI50 (HCC 2998): > 100 µM (inactive) | GI50 (SF-295): 27.7 µM (inactive) | GI50 (SF-539): 10.1 µM (inactive) | GI50 (M14): > 100 µM (inactive) | GI50 (MDA-N): > 100 µM (inactive) | GI50 (NCI-H522): > 100 µM (inactive) | GI50 (HOP-62): 3 µM (inactive) | GI50 (BT-549): 28.9 µM (inactive) | GI50 (SR): > 100 µM (inactive) | GI50 (MDA-MB-231): > 43.2 µM (inactive) | GI50 (UACC-62): > 100 µM (inactive) | GI50 (SK-MEL-5): > 100 µM (inactive) | GI50 (UACC-257): > 100 µM (inactive) | GI50 (SK-OV-3): 12.2 µM (inactive) | GI50 (SN12C): 21.2 µM (inactive) | GI50 (OVCAR-3): > 100 µM (inactive) | GI50 (NCI-H226): 17.9 µM (inactive) | GI50 (HCT-116): 43.4 µM (inactive) | GI50 (CAKI-1): > 93.3 µM (inactive) | GI50 (TK-10): 41.9 µM (inactive) | GI50 (SK-MEL-2): 20.9 µM (inactive)

C(=N\c1nc2cc3sc(/N=C/c4ccccc4)nc3cc2s1)/c1ccccc1
GI50 (OVCAR-4): > 89.5 µM (inactive) | GI50 (OVCAR-5): > 69.2 µM (inactive) | GI50 (SF-268): > 100 µM (inactive) | GI50 (UO-31): 62.5 µM (inactive) | GI50 (MCF7): 20.8 µM (inactive) | GI50 (LOX IMVI): 38.9 µM (inactive) | GI50 (SW-620): 37.4 µM (inactive) | GI50 (RPMI-8226): 29.7 µM (inactive) | GI50 (T47D): > 67.9 µM (inactive) | GI50 (HT-29): 37.1 µM (inactive) | GI50 (PC-3): 98.4 µM (inactive) | GI50 (SNB-19): > 100 µM (inactive) | GI50 (SK-MEL-28): > 100 µM (inactive) | GI50 (HOP-92): > 76.9 µM (inactive) | GI50 (NCI-H23): 39 µM (inactive) | GI50 (Malme-3M): > 65.3 µM (inactive) | GI50 (RXF 393): > 100 µM (inactive) | GI50 (NCI-H460): 7.52 µM (inactive) | GI50 (EKVX): 37.7 µM (inactive) | GI50 (U-251): > 94.6 µM (inactive) | GI50 (IGROV-1): > 63.2 µM (inactive) | GI50 (KM12): > 100 µM (inactive) | GI50 (MOLT-4): 9.75 µM (inactive) | GI50 (CCRF-CEM): 2.49 µM (inactive) | GI50 (786-0): > 100 µM (inactive) | GI50 (OVCAR-8): > 66.2 µM (inactive) | GI50 (HCT-15): 46 µM | GI50 (Hs-578T): > 45.9 µM (inactive) | GI50 (SNB-75): > 100 µM (inactive) | GI50 (MDA-MB-435): > 100 µM (inactive) | GI50 (DU-145): > 66.5 µM (inactive) | GI50 (COLO 205): 4.01 µM (inactive) | GI50 (A498): > 95.7 µM (inactive) | GI50 (K562): 29.1 µM (inactive) | GI50 (ACHN): 55.8 µM (inactive) | GI50 (A549): 9.66 µM (inactive) | GI50 (NCI/ADR-RES): > 80.4 µM (inactive) | GI50 (HCC 2998): 29.9 µM (inactive) | GI50 (SF-295): > 100 µM (inactive) | GI50 (SF-539): 32.5 µM (inactive) | GI50 (M14): > 100 µM (inactive) | GI50 (MDA-N): > 100 µM (inactive) | GI50 (NCI-H522): 17.1 µM (inactive) | GI50 (HOP-62): > 68.2 µM (inactive) | GI50 (BT-549): 54.2 µM (inactive) | GI50 (SR): 10.6 µM (inactive) | GI50 (MDA-MB-231): > 95.3 µM (inactive) | GI50 (UACC-62): 72.9 µM (inactive) | GI50 (SK-MEL-5): 25.5 µM (inactive) | GI50 (UACC-257): > 100 µM (inactive) | GI50 (SK-OV-3): > 100 µM (inactive) | GI50 (SN12C): 69.3 µM (inactive) | GI50 (OVCAR-3): > 85.3 µM (inactive) | GI50 (NCI-H226): 20.7 µM (inactive) | GI50 (HCT-116): 44 µM (inactive) | GI50 (CAKI-1): > 79.4 µM (inactive) | GI50 (TK-10): > 50.6 µM (inactive) | GI50 (SK-MEL-2): > 100 µM (inactive)
